A value given as a limit tells only on which side of the number the result lay.

From patent US9265731B2, “Drying of drug-containing particles” (Bend Research, Inc., priority 2005, dated 2016) come the findings set out here.

This data set can be described thus: In vitro dissolution test (microcentrifuge, PBS pH 6.5, 37° C., HPLC). In kind it is physicochemical. To be noted: for Drug 1 Concentration: PBS pH 6.5, 290 mOsm/kg, 37° C., 1000 μg/mL if all drug dissolved. The procedure:
A sample of the solid amorphous dispersion used in Example 4 was evaluated before and after secondary drying in an in vitro dissolution test to determine the effect of drying on concentration enhancement relative to the crystalline form of Drug 1. As a control, Control 5 consisted of crystalline Drug 1 alone. For this test, a sufficient amount of Dispersion 1 and Control 5 material was added to microcentrifuge test tubes so that the concentration of Drug 1 would have been 1000 μg/mL in both cases if all of the drug had dissolved. The test was performed in duplicate. The tubes were placed in a 37° C. temperature-controlled chamber, and 1.8 mL PBS at pH 6.5 and 290 mOsm/kg was added to each tube. The samples were mixed using a vortex mixer for about 60 seconds. The samples were centrifuged at 13,000 G at 37° C. for 1 minute. The resulting supernatant solution was then sampled and diluted 1:6 (by volume) with methanol and then analyzed by high performance liquid chromatography (HPLC). The contents of each tube were mixed on the vortex mixer and allowed to stand undisturbed at 37° C. until the next sample was taken. Samples were collected at 4, 10, 20, 40, 90, and 1200 minutes.
The concentrations of drug obtained in these samples were used to determine the maximum concentration of drug (MDC90) and the area under the concentration-versus-time curve (AUC90) during the initial ninety minutes.

The mark [1] stands for this setting: PBS pH 6.5, 37° C., initial 90 min.

Broadly, the AUC is the area under the concentration-time curve, a measure of exposure. For `CCOC(=O)N1c2ccc(C(F)(F)F)cc2[C@@H](N(Cc2cc(C(F)(F)F)cc(C(F)(F)F)c2)C(=O)OC)C[C@H]1CC` [Control 5, [2R,4S]4-[(3,5-bistrifluoromethyl-benzyl)-methoxycarbonyl-amino]-2-ethyl-6-trifluoromethyl-3,4-dihydro-2H-quinoline-1-carboxylic acid ethyl ester], under setting [1], the “AUC90 (area under the concentration-versus-time curve during the initial ninety minutes)” value was less than 88 µg·min/mL. Under setting [1], the “MDC90 (maximum concentration of drug during the initial ninety minutes)” value was less than 1 µg/mL. For the same compound, the AUC by setting is: (time 0 min, PBS pH 6.5, 37° C.) 0 µg·min/mL; (time 4 min, PBS pH 6.5, 37° C.) less than 2 µg·min/mL; (time 10 min, PBS pH 6.5, 37° C.) less than 8 µg·min/mL; (time 20 min, PBS pH 6.5, 37° C.) less than 18 µg·min/mL; (time 40 min, PBS pH 6.5, 37° C.) less than 38 µg·min/mL; (time 90 min, PBS pH 6.5, 37° C.) less than 88 µg·min/mL. The AUC (time 1200 min, PBS pH 6.5, 37° C.) is on record as <1,200 min*μg/mL. Further, the “Drug 1 Concentration” value was 0 µg/mL (time 0 min); less than 1 µg/mL (time 4 min); less than 1 µg/mL (time 10 min); less than 1 µg/mL (time 20 min); less than 1 µg/mL (time 40 min); less than 1 µg/mL (time 90 min). For the same compound, the “Drug 1 Concentration” value (time 1200 min) is less than 1 µg/mL.
